According to KR20240040049A, “신규 화합물 및 이를 포함하는 염증성 질환과 암에 대한 진단 및 치료에 사용되는 mri 조영제” (주식회사 테라노큐어, priority 2022, dated 2024):
Values after ≈ are worked out from the molar mass of the structure shown. “Also recorded” adds a separate entry of the source.

Key:
water solubility at 25℃ = format: physicochemical; details: for solubility: water
[1] = r1 relaxivity of gadolinium complexes; format: physicochemical; details: in words; comparison among compounds
[2] = test system: LPS-induced inflamed tissue (LPS로 유발된 염증 조직); assay: H&E staining of LPS-induced inflamed tissue; format: in vivo
NLRP3 = assay: acute hepatitis animal model (LPS and D-galactosamine): NLRP3; format: in vivo; details: Gd-galangin i.v. 0.1 mmol/kg, galangin oral
PARP = assay: acute hepatitis animal model (LPS and D-galactosamine): PARP; format: in vivo; details: Gd-galangin i.v. 0.1 mmol/kg, galangin oral

SMILES	r1 relaxivity [1]	solubility in water (water solubility at 25℃) [µM]	solubility in water (words) (water solubility at 25℃)	solubility (water solubility at 25℃) [µg/mL]	intercellular spacing / closeness to normal tissue ([2]; Gd-galangin i.v. versus galangin oral)	histological state compared with LPS alone ([2]; Gd-galangin i.v., galangin oral)	effect on NLRP3 (NLRP3)	effect on PARP (PARP)
O=c1cc(-c2ccccc2)oc2cc(O)ccc12 [7-hydroxyflavone, 7-Hydroxyflavone]		356 (≈ 84.8 µg/mL)	거의 물에 녹지 않는 불용성 물질; also recorded: Insoluble	85 (≈ 357 µM)				
O=c1c(O)c(-c2ccccc2)oc2cc(O)cc(O)c12 [galangin, 3,5,7-트리히드록시플라본]		2117 (≈ 572 µg/mL)	거의 물에 녹지 않는 불용성 물질; also recorded: Insoluble	572 (≈ 2120 µM)	전반적으로 더 벌어져	더 나은 상태	아무런 효과를 보이지 않았으며	아무런 효과를 보이지 않았으며
O=c1cc(-c2ccccc2)oc2cc(O)cc(O)c12 [chrysin]		330 (≈ 83.9 µg/mL)	거의 물에 녹지 않는 불용성 물질; also recorded: Insoluble	84 (≈ 330 µM)				

Now from value to compound, other results behind:

r1 relaxivity [1]	SMILES	solubility in water (water solubility at 25℃) [µM]	solubility in water (words) (water solubility at 25℃)	solubility (water solubility at 25℃) [µg/mL]	intercellular spacing / closeness to normal tissue ([2]; Gd-galangin i.v. versus galangin oral)	histological state compared with LPS alone ([2]; Gd-galangin i.v., galangin oral)	effect on NLRP3 (NLRP3)	effect on PARP (PARP)
유사한 값	O=C([O-])CN1CCN(CC(=O)[O-])CCN(CC(=O)O)CCN(CC(=O)[O-])CC1.[Gd+3] [Gd-DOTA]							
유사한 값	O=C([O-])CN1CCN(CC(=O)[O-])CCN(C(CO)C(O)CO)CCN(CC(=O)[O-])CC1.[Gd+3] (stereo not drawn) [Gd-BT-DO3A]							
